Series [1] can be described thus: Solubility assessment in solubility buffer system A. In kind it is physicochemical. The following applies: acetate buffer pH 4.5 with m-cresol; acetate buffer pH 4.5, 2.7 mg/ml m-cresol, target 10 mg/ml. Here is the method: Prior to the solubility measurement of a peptide batch, its purity was determined through UPLC/MS.
Therefore solutions from solid samples were prepared in a buffer system with a concentration of 10 mg/mL compound based on the previously determined % purity:
Solubility buffer system A) Acetate Buffer pH 4.5, 100 mM sodium acetate trihydrate, 2.7 mg/ml m-Cresol
UPLC-UV was performed after 1 hour of gentle agitation from the supernatant, which was obtained after 15 min of centrifugation at 2500 RCF (relative centrifugal acceleration).
The solubility was determined by the comparison of the UV peak area of 2 μL-injection of a buffered sample diluted 1:10 with a standard curve of a reference peptide with known concentration. The different UV extinction coefficients of sample and reference peptide were calculated based on the different amino acid sequences and considered in the concentration calculation.
Peptide samples were prepared in solubility buffer system A and solubility was assessed as described in Methods.

In series [2] the test system is female diet-induced obese (DIO) C57BL/6 mice. The experiment in a line: Acute and chronic effects after s.c. treatment in female diet-induced obese (DIO) C57BL/6 mice. It counts as in vivo. The following applies: for time until mice habituated to the feed intake suppression / Feed consumption estimate: DIO mice, 30 μg/kg s.c. twice-daily; for Feed consumption estimate: after dosing start; for Blood glucose profile following first treatment: fed DIO mice, day 1, 30 μg/kg s.c., 0-24 hours post-dose. Here is the method:
Female C57BL/6NHsd mice were ordered group housed from Envigo RMS Inc., shipped group housed and remained group housed with shipped cage mates in shoebox caging with wood chip bedding until day 38 of the predose phase. At the study start mice were between 25-26 weeks old.
Mice were housed under vivarium conditions that included a 12 h light/dark cycle (light phase 04:00 AM-4:00 PM), room temperatures between 23-26° C. and a relative humidity between 30-70%. All animals had free access to water and a high fat diet (TD97366) for 16 weeks prior to pharmacological intervention (dosing phase). Feed was replaced with fresh feed weekly until and for the last time on day 38 of the predose phase. During the subsequent dosing phase, approximately 50% of the remaining feed were removed, replaced with fresh feed, and pellets were mixed evenly once per week.
On predose day 38, obese DIO mice were assigned to treatment groups (n=8) to match mean body masses between all DIO groups. An age-matched group with ad libitum access to a rodent maintenance diet (Teklad Global Diets Rodent 2014, pelleted) was included in the study as a lean control group. In the predosing phase from day 32 through 38, all study animals were treated with vehicle (Phosphate Buffered Saline, PBS, Gibco, without CaCl2 and MgCl2) once daily (s.c. approximately 0.2 mL/mouse).
On day 37 of the predose phase, the test article was diluted with PBS to a concentration of 100 μg/mL and aliquots of this stock solution were stored at approximately ≤−60° C. Stock aliquots were thawed for weekly use and thereafter stored in a refrigerator at approximately 4° C. The injected test article solution was prepared fresh once on each dosing day by diluting stock solution with PBS to achieve the desired concentration.
Mice were treated twice daily with a s.c. injection of PBS-vehicle or the test article for 28 days. The morning dosing was initiated and completed between 06:00 and 07:30 AM and the afternoon dosing between 2:00 and 3:30 PM. On day 28 of the dosing phase only the morning dose was administered. The applied volume was 5 ml/kg and the dose was adjusted to the most recent body mass recording of each individual.
Animals had unlimited access to water and feed during the experiment. On day 1 of the dosing phase approximately 5 μL of blood were collected via tail clips at hour 0 prior to the first s.c. dose of PBS-vehicle or test article and 1, 2, 3, 4, 6, and 24 hours post-dose in non-anesthetized animals. The 24 hour blood collection was performed prior to dosing on day 2. Between the 6 and 24 hour blood sample the afternoon dose was administered. Glucose measurements were performed in whole blood and in duplicate or triplicate using Aviva glucometers.
Body mass was measured daily approximately between 06:00-07:30 AM from day 32 through 38 of the predosing phase and throughout the 28 days of the dosing phase. During the dosing phase mice were treated twice daily with either a s.c. injection of PBS-vehicle or test article.
To determine whole body fat mass Quantitative Nuclear Magnetic Resonance (QNMR) measurements were performed on predosing day 37 and on day 26 of the dosing phase. During the dosing phase mice were treated twice daily with either a s.c. injection of PBS-vehicle or test article.
Feed consumption was based on the daily assessment of the feeder weights of each cage between 06:00-07:30 AM. Each cage housed four mice and feed consumption was calculated throughout the 28 days of the dosing phase. During the dosing phase mice were treated twice daily with either a s.c. injection of PBS-vehicle or test article.
On day 28 blood was collected prior to any other inlife activities for determination of plasma insulin concentrations. Then the morning dose was administered and necropsy was performed 4 hours post-dose. For this purpose animals were anesthetized with isoflurane and blood was collected by orbital bleeding. […]

The next series deals with male ApoE KO mice. Description: Anti-atherosclerotic activity in ApoE KO mice, 16 weeks minipump infusion. In kind it is in vivo. The following applies: 150 μg/kg/day; for reduction of atherosclerotic plaques relative to vehicle control: 4 months (16 weeks) s.c. minipump; for LDL-cholesterol: 16 weeks. An excerpt: The apolipoprotein E (ApoE) knockout (KO) mouse model is widely used to investigate atherosclerosis. These mice spontaneously develop atherosclerotic lesions that are morphologically similar to those observed in humans (Meir & Leitersdorf 2004, Arterioscler Thromb Vasc Biol 24: 1006-1014, Rosenfeld et al. 2000, Arterioscler Thromb Vasc Biol 20: 2587-2592).
Male ApoE KO mice (B.129P2-apoetm1Unc/J) were randomly allocated to control or treatment groups (N=15 per group); wild-type mice (C57BL6/J) received vehicle treatment and acted as a second, healthy control.
ApoE KO and wild-type mice received constant 16 weeks infusion using subcutaneous osmotic minipumps (ALZET™) filled with either vehicle (sterile acetate buffer, pH 4.5), Peptides SEQ ID NO. 6 & SEQ ID NO. 11 (150 μg/kg/day) or with Liraglutide (600 μg/kg/day). Body weight and food intake was monitored throughout the study on a weekly basis.
Blood samples for blood lipid analysis were drawn before treatment and at weeks 7 and 16 to analyze total cholesterol, low density lipoprotein (LDL) cholesterol and high density lipoprotein (HDL) cholesterol (not shown).
The aorta was dissected and aortic atherosclerotic plaque formation was measured as absolute and relative plaque area (% oilred stained area of total aortic surface area) using quantitative and automated image analysis.

Numbered stars: 1 amine (or outer) side, 2 acyl side, 3 side chain; on linkers, the order of the positions; unused ones are H or OH. Square brackets hold non-standard residues; d marks the D form. Side chains are listed from the residue outwards. Peptide text beside a SMILES is read from it. * marks the point of attachment. γGlu = O=C(O)[C@H](CCC(=O)[*:2])N[*:1]; Palmitoyl = CCCCCCCCCCCCCCCC(=O)*; Aib = CC(C)(N)C(=O)O

As to `CCCCCCCCCCCCCCCC(=O)N[C@@H](CCC(=O)N[C@@H](CCC(=O)NCCCC[C@H](NC(=O)[C@H](CC(C)C)NC(=O)[C@H](CCCCN)NC(=O)[C@H](CO)NC(=O)[C@H](CC(C)C)NC(=O)[C@H](CC(=O)O)NC(=O)[C@H](CO)NC(=O)[C@@H](NC(=O)[C@H](Cc1ccccc1)NC(=O)[C@@H](NC(=O)CNC(=O)[C@H](Cc1c[nH]cn1)NC(=O)C(C)(C)NC(=O)[C@@H](N)Cc1c[nH]cn1)[C@@H](C)O)[C@@H](C)O)C(=O)N[C@@H](CCC(=O)O)C(=O)N[C@@H](CCC(=O)O)C(=O)N[C@@H](CCC(N)=O)C(=O)N[C@@H](CCCNC(=N)N)C(=O)N[C@@H](CCC(N)=O)C(=O)N[C@@H](CCCCN)C(=O)N[C@@H](CCC(=O)O)C(=O)N[C@@H](Cc1ccccc1)C(=O)N[C@H](C(=O)N[C@@H](CCC(=O)O)C(=O)N[C@@H](Cc1c[nH]c2ccccc12)C(=O)N[C@@H](CC(C)C)C(=O)N[C@@H](CCCCN)C(=O)N[C@@H](C)C(=O)NCC(=O)NCC(=O)N[C@@H](Cc1c[nH]cn1)C(=O)N1CCC[C@H]1C(=O)N[C@@H](CO)C(=O)NC(C)(C)C(=O)N[C@@H](CCCCN)C(=O)N1CCC[C@H]1C(=O)N1CCC[C@H]1C(=O)N1CCC[C@H]1C(=O)N[C@@H](CCCCN)C(N)=O)[C@@H](C)CC)C(=O)O)C(=O)O` [SEQ ID NO: 6, H-Aib-H-G-T-F-T-S-D-L-S-K-L-K[gGlu-gGlu-Palm]-E-E-Q-R-Q-K-E-F-I-E-W-L-K-A-G-G-H-P-S-Aib-K-P-P-P-K-NH2], in series [1], the solubility at 1 h was greater than 9700 µg/mL. In series [2], the “time until mice habituated to the feed intake suppression” value is reported as “approximately ten”, the “Feed consumption estimate” value is “suppressed feed intake” and the “Blood glucose profile following first treatment” value is reported as “pronounced decrease in blood glucose concentrations over 24 hours”. Moreover, in the series with male ApoE KO mice, the “reduction of atherosclerotic plaques relative to vehicle control” value is listed as 63% and the “LDL-cholesterol” value is “marked reduction”.

For `CCCCCCCCCCCCCCCC(=O)N[C@@H](CCC(=O)N[C@@H](CCC(=O)NCCCC[C@H](NC(=O)[C@H](CC(C)C)NC(=O)[C@H](CCCCN)NC(=O)[C@H](CO)NC(=O)[C@H](CC(C)C)NC(=O)[C@H](CC(=O)O)NC(=O)[C@H](CO)NC(=O)[C@@H](NC(=O)[C@H](Cc1ccccc1)NC(=O)[C@@H](NC(=O)CNC(=O)[C@H](Cc1c[nH]cn1)NC(=O)C(C)(C)NC(=O)[C@@H](N)Cc1c[nH]cn1)[C@@H](C)O)[C@@H](C)O)C(=O)N[C@@H](CCC(=O)O)C(=O)N[C@@H](CCC(=O)O)C(=O)N[C@@H](CCC(N)=O)C(=O)N[C@@H](CCCNC(=N)N)C(=O)N[C@@H](CCC(N)=O)C(=O)NC(C)(C)C(=O)N[C@@H](CCC(=O)O)C(=O)N[C@@H](Cc1ccccc1)C(=O)N[C@H](C(=O)N[C@@H](CCC(=O)O)C(=O)N[C@@H](Cc1c[nH]c2ccccc12)C(=O)N[C@@H](CC(C)C)C(=O)N[C@@H](CCCCN)C(=O)N[C@@H](C)C(=O)N[C@H](C)C(=O)NCC(=O)N1CCC[C@H]1C(=O)N1CCC[C@H]1C(=O)N[C@@H](CO)C(=O)NC(C)(C)C(=O)N[C@@H](CCCCN)C(=O)N1CCC[C@H]1C(=O)N1CCC[C@H]1C(=O)N1CCC[C@H]1C(=O)N[C@@H](CCCCN)C(N)=O)[C@@H](C)CC)C(=O)O)C(=O)O` [SEQ ID NO: 11, H-Aib-H-G-T-F-T-S-D-L-S-K-L-K[gGlu-gGlu-Palm]-E-E-Q-R-Q-Aib-E-F-I-E-W-L-K-A-dAla-G-P-P-S-Aib-K-P-P-P-K-NH2] (H-H[Aib]HGTFTSDLSKLK([γGlu-γGlu-Palmitoyl])EEQRQ[Aib]EFIEWLKA[dA]GPPS[Aib]KPPPK-NH2), the solubility at 1 h in series [1] is greater than 9800 µg/mL. In series [2], the “time until mice habituated to the feed intake suppression” value was “approximately 15 days”, the “Feed consumption estimate” value is on record as “suppressed feed intake” and the “Blood glucose profile following first treatment” value is listed as “pronounced decrease in blood glucose concentrations that persisted over 24 hours”. In the series with male ApoE KO mice, the “reduction of atherosclerotic plaques relative to vehicle control” value turned out to be 73% and the “LDL-cholesterol” value was “marked reduction”.
